pIC50: −log10 of the molar value.
Assays:
[1] = biological target: T1, CDK2/CycE (Homo sapiens, UniProt P24941); assay: CDK2/CycE kinase assay (TR-FRET, 2 mM ATP); format: biochemical; details: 2 mM ATP (high ATP); median; read-out: CDK2/CyclinE, 2 mM ATP (high ATP), IC50 (median)
T1 construct: purchased ProQinase GmbH (Freiburg, Germany); host or cells: insect cells (Sf9)
Outline: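 Biotin-peptide phosphorylation (0.75 µM substrate, 2 mM ATP final, 25 min, 22 °C) by Sf9-expressed GST-CDK2/GST-CycE, after a 15-min compound pre-binding step. Inhibition scaled between enzyme-free (100%) and uninhibited (0%) wells.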

[2] = test system: BRCA1 mRNA expression in MDA-MB-231 cells; assay: qRT-PCR assay: BRCA1 mRNA expression in MDA-MB-231; format: cell-based, human; details: Homo sapiens, MDA-MB-231, Inhibition of BRCA1 mRNA expression in MDA-MB-231 cells; median; read-out: RTqPCR-MDA-MB-231, IC50, BRCA1 (median)
Outline: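 BRCA1 transcript by RT-qPCR relative to GAPDH, from 600 ng RNA converted to cDNA. MDA-MB-231 cells plated at 200,000/well received test compound continuously for 24 h, starting 24 h post-seeding.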

[3] = biological target: T2, CDK9/CycT1 (Homo sapiens, UniProt P50750); assay: CDK9/CycT1 high ATP kinase assay (TR-FRET, 2 mM ATP); format: biochemical; details: 2 mM ATP (high ATP); median; read-out: CDK9/CyclinT1, 2 mM ATP (high ATP), IC50 (median)
T2 construct: Recombinant full-length His-tagged human CDK9 and CycT1; purchased Life Technologies PV4131; host or cells: insect cells
Outline: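 Full-length His-tagged human CDK9/CycT1 (insect cell, ~0.5 μg/mL) preincubated 15 min at 22 °C with compound in Tris pH 8.0, MgCl2, DTT buffer before reaction with biotinylated peptide substrate at high ATP (2 mM).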

T2 sequence (P50750 whole entry): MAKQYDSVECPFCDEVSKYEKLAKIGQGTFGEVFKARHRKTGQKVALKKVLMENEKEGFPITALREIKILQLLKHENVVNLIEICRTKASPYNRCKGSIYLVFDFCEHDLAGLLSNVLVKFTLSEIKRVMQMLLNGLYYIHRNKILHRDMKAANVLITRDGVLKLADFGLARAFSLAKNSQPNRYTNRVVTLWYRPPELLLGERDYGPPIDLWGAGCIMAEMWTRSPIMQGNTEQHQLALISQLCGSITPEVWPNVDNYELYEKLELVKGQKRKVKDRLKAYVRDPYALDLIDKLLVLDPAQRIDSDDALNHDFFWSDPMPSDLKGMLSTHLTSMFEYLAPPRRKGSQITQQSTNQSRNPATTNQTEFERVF
T2 sequence (O60563 whole entry partner): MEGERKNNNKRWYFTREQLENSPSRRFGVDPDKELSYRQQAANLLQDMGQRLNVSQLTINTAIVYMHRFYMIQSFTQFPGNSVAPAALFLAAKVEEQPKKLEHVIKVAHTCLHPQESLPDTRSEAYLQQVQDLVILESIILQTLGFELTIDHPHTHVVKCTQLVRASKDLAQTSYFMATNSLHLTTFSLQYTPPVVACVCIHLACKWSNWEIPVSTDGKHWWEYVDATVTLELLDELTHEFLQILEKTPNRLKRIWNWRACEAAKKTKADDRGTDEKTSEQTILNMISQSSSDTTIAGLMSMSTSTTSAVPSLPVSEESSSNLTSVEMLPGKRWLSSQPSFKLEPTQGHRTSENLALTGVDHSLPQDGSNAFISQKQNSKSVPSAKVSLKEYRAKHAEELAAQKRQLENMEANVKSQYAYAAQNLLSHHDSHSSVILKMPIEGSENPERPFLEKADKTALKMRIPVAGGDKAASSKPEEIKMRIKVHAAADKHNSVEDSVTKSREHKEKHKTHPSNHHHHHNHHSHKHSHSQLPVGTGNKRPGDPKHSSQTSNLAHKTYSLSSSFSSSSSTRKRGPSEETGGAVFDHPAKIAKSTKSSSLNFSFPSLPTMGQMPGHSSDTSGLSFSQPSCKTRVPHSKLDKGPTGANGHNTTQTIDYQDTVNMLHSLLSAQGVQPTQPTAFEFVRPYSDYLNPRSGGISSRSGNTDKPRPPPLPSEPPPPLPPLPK

pIC50 [1]	pIC50 [2]	pIC50 [3]	Structure (SMILES)
5.39	7.74	5.27	COc1cccc(-c2cnc(CNc3nc(N4CCOCC4)nc4c(Br)cnn34)[nH]2)c1 [Example 80, 8-bromo-N-{[5-(3-methoxyphenyl)-1H-imidazol-2-yl]methyl}-2-(morpholin-4-yl)pyrazolo[1,5-a][1,3,5]triazin-4-amine]
4.81	7.88	< 4.70	c1ccc2[nH]c(CNc3nc(N4CCOCC4)nc4c(C5CC5)cnn34)nc2c1 [Example 92, N-[(1H-benzimidazol-2-yl)methyl]-8-cyclopropyl-2-(morpholin-4-yl)pyrazolo[1,5-a][1,3,5]triazin-4-amine]
4.95	7.68	< 4.70	CC(C)c1cnn2c(NCc3nc4ccccc4[nH]3)nc(N3CCN(C)CC3)nc12 [Example 2, N-[(1H-benzimidazol-2-yl)methyl]-2-(4-methylpiperazin-1-yl)-8-(propan-2-yl)pyrazolo[1,5-a][1,3,5]triazin-4-amine]
5.33	7.55	5.45	Brc1cnn2c(NCc3nnc(-c4ccccc4)[nH]3)nc(N3CCCC3)nc12 [Example 64, 8-bromo-N-[(5-phenyl-4H-1,2,4-triazol-3-yl)methyl]-2-(pyrrolidin-1-yl)pyrazolo[1,5-a][1,3,5]triazin-4-amine]
5.19	7.42	< 4.70	COC1CCN(c2nc(NCc3nc4ccccc4[nH]3)n3ncc(Br)c3n2)CC1 [Example 62, N-[(1H-benzimidazol-2-yl)methyl]-8-bromo-2-(4-methoxypiperidin-1-yl)pyrazolo[1,5-a][1,3,5]triazin-4-amine]
5.19	6.47	< 4.70	COC(=O)C1CCN(c2nc(NCc3nc4ccccc4[nH]3)n3ncc(Br)c3n2)CC1 [Example 63, methyl 1-(4-{[(1H-benzimidazol-2-yl)methyl]amino}-8-bromopyrazolo[1,5-a][1,3,5]triazin-2-yl)piperidine-4-carboxylate]
5.64	–	5.60	Fc1cccc(-c2cnc(CNc3nc(N4CCOCC4)nc4c(Br)cnn34)[nH]2)c1 [Example 79, 8-bromo-N-{[5-(3-fluorophenyl)-1H-imidazol-2-yl]methyl}-2-(morpholin-4-yl)pyrazolo[1,5-a][1,3,5]triazin-4-amine]
5.30	9.02	< 4.70	CCc1cnn2c(NCc3nc4c(F)c(F)ccc4[nH]3)nc(N3CCN(C)CC3)nc12.O=CO [Example 435, formic acid N-[(4,5-difluoro-1H-benzimidazol-2-yl)methyl]-8-ethyl-2-(4-methylpiperazin-1-yl)pyrazolo[1,5-a][1,3,5]triazin-4-amine]
< 4.70	–	< 4.70	CC(C)c1cnn2c(NCc3nc4ccccc4[nH]3)nc(N(C)C)nc12 [Example 3, N^4-[(1H-benzimidazol-2-yl)methyl]-N^2,N^2-dimethyl-8-(propan-2-yl)pyrazolo[1,5-a][1,3,5]triazine-2,4-diamine]
5.81	7.25	6.24	OC[C@@H]1CCCCN1c1nc(NCc2nnc(-c3ccccc3)[nH]2)n2ncc(Br)c2n1 [Example 70, [(2S)-1-(8-bromo-4-{[(5-phenyl-4H-1,2,4-triazol-3-yl)methyl]amino}pyrazolo[1,5-a][1,3,5]triazin-2-yl)piperidin-2-yl]methanol]
4.98	–	5.07	c1ccc(-c2nnc(CNc3nc(N4CCOCC4)nc4c(C5CC5)cnn34)[nH]2)cc1 [Example 93, 8-cyclopropyl-2-(morpholin-4-yl)-N-[(5-phenyl-4H-1,2,4-triazol-3-yl)methyl]pyrazolo[1,5-a][1,3,5]triazin-4-amine]
< 4.70	7.07	< 4.70	Fc1cccc(-c2cnn3c(NCc4nc5ccccc5[nH]4)nc(N4CCOCC4)nc23)c1 [Example 91, N-[(1H-benzimidazol-2-yl)methyl]-8-(3-fluorophenyl)-2-(morpholin-4-yl)pyrazolo[1,5-a][1,3,5]triazin-4-amine]
4.74	–	< 4.70	FC(F)(F)Oc1ccccc1-c1nnc(CNc2nc(N3CCOCC3)nc3c(Br)cnn23)[nH]1 [Example 74, 8-bromo-2-(morpholin-4-yl)-N-({5-[2-(trifluoromethoxy)phenyl]-4H-1,2,4-triazol-3-yl}methyl)pyrazolo[1,5-a][1,3,5]triazin-4-amine]
5.07	–	5.19	FC(F)(F)c1ccccc1-c1cnc(CNc2nc(N3CCOCC3)nc3c(Br)cnn23)[nH]1 [Example 88, 8-bromo-2-(morpholin-4-yl)-N-({5-[2-(trifluoromethyl)phenyl]-1H-imidazol-2-yl}methyl)pyrazolo[1,5-a][1,3,5]triazin-4-amine]
5.59	7.97	5.29	COc1ccccc1-c1cnc(CNc2nc(N3CCOCC3)nc3c(Br)cnn23)[nH]1 [Example 87, 8-bromo-N-{[5-(2-methoxyphenyl)-1H-imidazol-2-yl]methyl}-2-(morpholin-4-yl)pyrazolo[1,5-a][1,3,5]triazin-4-amine]
5.34	7.74	< 4.97	Cc1ccccc1-c1cnc(CNc2nc(N3CCOCC3)nc3c(Br)cnn23)[nH]1 [Example 85, 8-bromo-N-{[5-(2-methylphenyl)-1H-imidazol-2-yl]methyl}-2-(morpholin-4-yl)pyrazolo[1,5-a][1,3,5]triazin-4-amine]
4.94	–	4.90	FC(F)(F)Oc1cccc(-c2cnc(CNc3nc(N4CCOCC4)nc4c(Br)cnn34)[nH]2)c1 [Example 82, 8-bromo-2-(morpholin-4-yl)-N-({5-[3-(trifluoromethoxy)phenyl]-1H-imidazol-2-yl}methyl)pyrazolo[1,5-a][1,3,5]triazin-4-amine]
4.98	–	< 4.70	O[C@@H]1CCN(c2nc(NCc3nc4ccccc4[nH]3)n3ncc(Br)c3n2)C1 [Example 202, (3R)-1-(4-{[(1H-benzimidazol-2-yl)methyl]amino}-8-bromopyrazolo[1,5-a][1,3,5]triazin-2-yl)pyrrolidin-3-ol]
4.92	–	5.08	Clc1ccccc1-c1nnc(CNc2nc(N3CCOCC3)nc3c(Br)cnn23)[nH]1 [Example 69, 8-bromo-N-{[5-(2-chlorophenyl)-4H-1,2,4-triazol-3-yl]methyl}-2-(morpholin-4-yl)pyrazolo[1,5-a][1,3,5]triazin-4-amine]
4.95	–	4.89	COC(=O)C1CCN(c2nc(NCc3nnc(-c4ccccc4)[nH]3)n3ncc(Br)c3n2)CC1 [Example 77, methyl 1-(8-bromo-4-{[(5-phenyl-4H-1,2,4-triazol-3-yl)methyl]amino}pyrazolo[1,5-a][1,3,5]triazin-2-yl)piperidine-4-carboxylate]
5.39	–	5.27	Clc1cccc(-c2cnc(CNc3nc(N4CCOCC4)nc4c(Br)cnn34)[nH]2)c1 [Example 81, 8-bromo-N-{[5-(3-chlorophenyl)-1H-imidazol-2-yl]methyl}-2-(morpholin-4-yl)pyrazolo[1,5-a][1,3,5]triazin-4-amine]
5.60	–	< 5.21	Fc1ccccc1-c1nnc(CNc2nc(N3CCOCC3)nc3c(Br)cnn23)[nH]1 [Example 75, 8-bromo-N-{[5-(2-fluorophenyl)-4H-1,2,4-triazol-3-yl]methyl}-2-(morpholin-4-yl)pyrazolo[1,5-a][1,3,5]triazin-4-amine]
5.08	–	5.11	COC1CCN(c2nc(NCc3nnc(-c4ccccc4)[nH]3)n3ncc(Br)c3n2)CC1 [Example 76, 8-bromo-2-(4-methoxypiperidin-1-yl)-N-[(5-phenyl-4H-1,2,4-triazol-3-yl)methyl]pyrazolo[1,5-a][1,3,5]triazin-4-amine]
5.01	–	< 4.70	FC(F)(F)Oc1ccccc1-c1cnc(CNc2nc(N3CCOCC3)nc3c(Br)cnn23)[nH]1 [Example 89, 8-bromo-2-(morpholin-4-yl)-N-({5-[2-(trifluoromethoxy)phenyl]-1H-imidazol-2-yl}methyl)pyrazolo[1,5-a][1,3,5]triazin-4-amine]
5.12	–	5.17	FC(F)(F)c1cccc(-c2cnc(CNc3nc(N4CCOCC4)nc4c(Br)cnn34)[nH]2)c1 [Example 83, 8-bromo-2-(morpholin-4-yl)-N-({5-[3-(trifluoromethyl)phenyl]-1H-imidazol-2-yl}methyl)pyrazolo[1,5-a][1,3,5]triazin-4-amine]
5.37	–	6.11	C[C@@H]1CN(c2nc(NCc3nnc(-c4ccccc4)[nH]3)n3ncc(Br)c3n2)C[C@H](C)O1 [Example 78, 8-bromo-2-[(2R,6S)-2,6-dimethylmorpholin-4-yl]-N-[(5-phenyl-4H-1,2,4-triazol-3-yl)methyl]pyrazolo[1,5-a][1,3,5]triazin-4-amine]

Reference: patent US20230117034A1, “PYRAZOLOTRIAZINES” (Bayer Aktiengesellschaft, priority 2019, published 2023)
